Measurements as given in patent US5589483A, “Isoquinoline poly (ADP-ribose) polymerase inhibitors to treat skin diseases associated with cellular senescence” (priority 1994, dated 1996).

Assays:
[1] = biological target: Poly (ADP-Ribose) Polymerase (PADPRP); details: cited from earlier work; for IC50: PADPRP Inhibitors, Table 1
[2] = system: human fibroblast cells (W138 cells); test: Extension of lifespan and proliferative capacity of human fibroblast cells in culture (cumulative population doublings); assay type: cell-based
Excerpt: At the time of subdivision, the media was aspirated, and the cells were rinsed with phosphate buffered saline (PBS) and then trypsinized. […] This process was repeated every ~7 days until the cells appeared to stop dividing.

human fibroblasts = details: Rattan and Clark, 1994; cited from earlier work

Row | SMILES | IC50 [1] [µM] | further results
1 | O=c1[nH]ncc2ccccc12 [1(2H)-Phthalazinone] | 12 | 
2 | Oc1cccc2c(O)nccc12 [1,5-Dihydroxyisoquinoline] |  | proliferative lifespan (maximum achievable cumulative population doublings) ([2]; 100 μM (DMSO concentration 0.1%), W138 cells, FIG. 2): extension of their proliferative lifespan; proliferative capacity of treated cells ([2]; same procedure, FIG. 2, concentration not given): increased proliferative capacity
3 | O=c1[nH][nH]c(=O)c2ccccc12 [2,3-Dihydro-1,4-phthalazinedione] | 30 | 
4 | NC(=O)c1ccccc1O [2-Hydroxybenzamide] | 82 | 
5 | O=c1[nH]c(S)nc2ccccc12 [2-Mercapto-4(3H)-quinazolinone] | 44 | 
6 | COc1ccccc1C(N)=O [2-Methoxybenzamide] | 20 | 
7 | Cc1cc(=O)c2ccccc2o1 [2-Methyl-1,4-benzopyrone] | 45 | 
8 | O=c1[nH]c2ccc([N+](=O)[O-])cc2c2ccccc12 [2-Nitro-6(5H)-phenanthridinone] | 0.35 | 
9 | O=c1[nH]c2ccccc2c2ccccc12 [2H-Benz[c]isoquinolin-1-one] | 0.3 | 
10 | CC(=O)Nc1cccc(C(N)=O)c1 [3-Acetamidobenzamide] | 12 | 
11 | NC(=O)c1cccc(N)c1 [3-Aminobenzamide] |  | lifespan of treated cells versus control cells ([2]; 10 μM 3-AB, FIG. 1): no effect; lifespan of treated cells versus control cells ([2]; 100 μM 3-AB, FIG. 1): longer lifespan than control cells; lifespan and proliferative capacity of treated cells ([2]; 1 mM 3-AB, FIG. 1): dramatic increase in lifespan and proliferative capacity; maximum achievable cumulative population doublings ([2]; 1 mM 3-AB, W138 cells, FIG. 1): significant increase; days in culture at which cells were still dividing ([2]; 1 mM 3-AB, control cells stopped dividing after about 40 days): > 60 days
12 | Nc1cccc2c(=O)[nH][nH]c(=O)c12 [3-Aminophthalhydrazide] | 23 | 
13 | NC(=O)c1cccc(F)c1 [3-Fluorobenzamide] | 20 | 
14 | NC(=O)c1cccc(O)c1 [3-Hydroxybenzamide] | 9.1 | 
15 | Cc1cccc(C(N)=O)c1 [3-Methylbenzamide] | 19 | 
16 | O=c1[nH][nH]c(=O)c2c([N+](=O)[O-])cccc12 [3-Nitrophthalhydrazide] | 72 | 
17 | Cc1cc(O)c2ccccc2n1 [4-Hydroxy-2-methylquinoline] | 74 | 
18 | Oc1ccnc2ccccc12 [4-Hydroxyquinoline] | 80 | 
19 | CC(=O)Nc1ccc(O)c(C(N)=O)c1 [5-Acetamidosalicylamide] | 45 | 
20 | O=c1[nH]cc(I)c(=O)[nH]1 [5-Iodouracil] | 71 | 
21 | O=c1[nH]c(=O)n([C@@H]2O[C@H](CO)[C@@H](O)[C@H]2O)cc1I [5-Iodouridine] | 43 | 
22 | CCCCC/C=C\C/C=C\C/C=C\C/C=C\CCCC(=O)O [Arachidonic acid] | 44 | 
23 | NC(=O)c1ccccc1 [Benzamide] | 22 | 
24 | CCCCC/C=C\C/C=C\CCCCCCCC(=O)O [Linoleic acid] | 48 | 
25 | NC(=O)c1cccnc1 [Nicotinamide] | 210 | 
26 | CCCCCCCC/C=C\CCCCCCCC(=O)O [Oleic acid] | 82 | 
27 | c1coc(CNc2ncnc3[nH]cnc23)c1 [kinetin] |  | PADPRP inhibition (in words) ([1]; Althaus and Richter, 1987): weak inhibitor; cell culture lifespan in terms of maximum proliferative capacity in vitro (human fibroblasts): not accompanied by an increase in cell culture lifespan; onset of aging characteristics (human fibroblasts): delay the onset of aging characteristics
28 | NC(=O)c1cccc(C(N)=O)c1 [m-Phthalamide] | 50 | 
